Columns and labels:
Format in all cases: functional, organism-based
[1] = tested on: Leishmania donovani; assay: Tested in vitro for leishmanicidal activity against Leishmania donovani (PP75) at the concentration of 25 ug/mL;+ indicates Less than 70% lysis of parasites
[2] = tested on: Leishmania donovani; assay: In vitro for leishmanicidal activity against Leishmania donovani (PP75) at the concentration of 10 ug/mL.
[3] = tested on: Leishmania braziliensis; assay: In vitro for leishmanicidal activity against Leishmania brasiliensis (2903) at the concentration of 100 ug/mL.
[4] = tested on: Leishmania amazonensis; assay: In vitro for leishmanicidal activity against Leishmania amazonensis (PH8) at the concentration of 100 ug/mL.
[5] = tested on: Leishmania amazonensis; assay: In vitro for leishmanicidal activity against Leishmania amazonensis (PH8) at the concentration of 10 ug/mL.
[6] = tested on: Leishmania amazonensis; assay: Tested in vitro for leishmanicidal activity against Leishmania amazonensis (PH8) at the concentration of 25 ug/mL; + indicates less than 70% lysis of parasites
[7] = tested on: Leishmania amazonensis; assay: Tested in vitro for leishmanicidal activity against Leishmania amazonensis (PH8) at the concentration of 50 ug/mL; + indicates less than 70% lysis of parasites
[8] = tested on: Leishmania braziliensis; assay: Tested in vitro for leishmanicidal activity against Leishmania brasiliensis (2903) at the concentration of 25 ug/mL;+ indicates Less than 70% lysis of parasites
[9] = tested on: Leishmania donovani; assay: Tested in vitro for leishmanicidal activity against Leishmania donovani (PP75) at the concentration of 50 ug/mL;+ indicates Less than 70% lysis of parasites
[10] = tested on: Leishmania donovani; assay: In vitro for leishmanicidal activity against Leishmania donovani (PP75) at the concentration of 100 ug/mL.
[11] = tested on: Leishmania braziliensis; assay: Tested in vitro for leishmanicidal activity against Leishmania brasiliensis (2903) at the concentration of 50 ug/mL;+ indicates Less than 70% lysis of parasites
[12] = tested on: Leishmania braziliensis; assay: Tested in vitro for leishmanicidal activity against Leishmania brasiliensis (2903) at the concentration of 10 ug/mL;+ indicates Less than 70% lysis of parasites
[13] = tested on: Leishmania donovani; assay: In vitro for leishmanicidal activity against Leishmania donovani (PP75) at the concentration of 50 ug/mL.
[14] = tested on: Leishmania braziliensis; assay: In vitro for leishmanicidal activity against Leishmania brasiliensis (2903) at the concentration of 25 ug/mL.
[15] = tested on: Leishmania amazonensis; assay: In vitro for leishmanicidal activity against Leishmania amazonensis (PH8) at the concentration of 50 ug/mL.
[16] = tested on: Leishmania donovani; assay: In vitro for leishmanicidal activity against Leishmania donovani (PP75) at the concentration of 25 ug/mL.
[17] = tested on: Leishmania braziliensis; assay: In vitro for leishmanicidal activity against Leishmania brasiliensis (2903) at the concentration of 50 ug/mL.
[18] = tested on: Leishmania braziliensis; assay: Tested in vitro for leishmanicidal activity against Leishmania brasiliensis (2903) at the concentration of 100 ug/mL;++ indicates 80-90% lysis of parasites
[19] = tested on: Leishmania donovani; assay: Tested in vitro for leishmanicidal activity against Leishmania donovani (PP75) at the concentration of 10 ug/mL
[20] = tested on: Leishmania braziliensis; assay: In vitro for leishmanicidal activity against Leishmania brasiliensis (2903) at the concentration of 10 ug/mL.
[21] = tested on: Leishmania amazonensis; assay: In vitro for leishmanicidal activity against Leishmania amazonensis (PH8) at 25 ug/mL; No lysis of parasites.
[22] = tested on: Leishmania braziliensis; assay: Tested in vitro for leishmanicidal activity against Leishmania brasiliensis (2903) at the concentration of 100 ug/mL; + indicates Less than 70% lysis of parasites
[23] = tested on: Leishmania amazonensis; assay: Tested in vitro for leishmanicidal activity against Leishmania amazonensis (PH8) at the concentration of 100 ug/mL; + indicates Less than 70% lysis of parasites
[24] = tested on: Leishmania donovani; assay: Tested in vitro for leishmanicidal activity against Leishmania donovani (PP75) at the concentration of 100 ug/mL;+ indicates Less than 70% lysis of parasites
[25] = tested on: Leishmania braziliensis; assay: Tested in vitro for leishmanicidal activity against Leishmania brasiliensis (2903) at the concentration of 50 ug/mL;++ indicates 80-90% lysis of parasites
[26] = tested on: Leishmania donovani; assay: Tested in vitro for leishmanicidal activity against Leishmania donovani (PP75) at the concentration of 50 ug/mL;++ indicates 80-90% lysis of parasites
[27] = tested on: Leishmania amazonensis; assay: Tested in vitro for leishmanicidal activity against Leishmania amazonensis (PH8) at the concentration of 50 ug/mL; ++ indicates 80-90% lysis of parasites
[28] = tested on: Leishmania amazonensis; assay: Tested in vitro for leishmanicidal activity against Leishmania amazonensis (PH8) at the concentration of 100 ug/mL; + indicates less than 70% lysis of parasites
[29] = tested on: Leishmania braziliensis; assay: Tested in vitro for leishmanicidal activity against Leishmania brasiliensis (2903) at the concentration of 10 ug/mL;++ indicates 80-90% lysis of parasites
[30] = tested on: Leishmania donovani; assay: Tested in vitro for leishmanicidal activity against Leishmania donovani (PP75) at the concentration of 10 ug/mL;++ indicates 80-90% lysis of parasites
[31] = tested on: Leishmania amazonensis; assay: Tested in vitro for leishmanicidal activity against Leishmania amazonensis (PH8) at the concentration of 10 ug/mL; ++ indicates 80-90% lysis of parasites
[32] = tested on: Leishmania donovani; assay: Tested in vitro for leishmanicidal activity against Leishmania donovani (PP75) at the concentration of 25 ug/mL;++ indicates 80-90% lysis of parasites
[33] = tested on: Leishmania braziliensis; assay: Tested in vitro for leishmanicidal activity against Leishmania brasiliensis (2903) at the concentration of 25 ug/mL;++ indicates 80-90% lysis of parasites
[34] = tested on: Leishmania amazonensis; assay: Tested in vitro for leishmanicidal activity against Leishmania amazonensis (PH8) at the concentration of 25 ug/mL; ++ indicates 80-90% lysis of parasites

SMILES	Activity [1]	Activity [2]	Activity [3]	Activity [4]	Activity [5]	Activity [6]	Activity [10]	Activity [13]	Activity [14]	Activity [15]	Activity [16]	Activity [17]	Activity [19]	Activity [20]	Activity [21]	Activity [22]	Activity [24]	other results
CCCCCCCCCCCCCCC(N)CNCC(=O)OCC (configuration not stated)	Less than 70% lysis of parasites	Less than 70% lysis of parasites	+	+	Less than 70% lysis of parasites	Less than 70% lysis of parasites	+	–	–	–	–	–	–	–	–	–	–	Activity [7]: Less than 70% lysis of parasites; Activity [8]: Less than 70% lysis of parasites; Activity [9]: Less than 70% lysis of parasites; Activity [11]: Less than 70% lysis of parasites; Activity [12]: Less than 70% lysis of parasites
CCCCCCCCCCCCCCC(CN(CC(=O)OCC)CC(=O)OCC)NC(=O)OC(C)(C)C (configuration not stated)	–	–	–	80-90% lysis of parasites	80-90% lysis of parasites	–	80-90% lysis of parasites	80-90% lysis of parasites	80-90% lysis of parasites	80-90% lysis of parasites	80-90% lysis of parasites	80-90% lysis of parasites	80-90% lysis of parasites	80-90% lysis of parasites	80-90% lysis of parasites	–	–	Activity [18]: 80-90% lysis of parasites
CCCCCCCCCCCCCCC(COCc1ccccc1)NC(=O)OC(C)(C)C (configuration not stated)	–	–	–	–	Less than 70% lysis of parasites	–	–	Less than 70% lysis of parasites	Less than 70% lysis of parasites	Less than 70% lysis of parasites	Less than 70% lysis of parasites	Less than 70% lysis of parasites	Less than 70% lysis of parasites	Less than 70% lysis of parasites	Less than 70% lysis of parasites	Less than 70% lysis of parasites	Less than 70% lysis of parasites	Activity [23]: Less than 70% lysis of parasites
CCCCCCCCCCCCCCC(N)COCc1ccccc1 (configuration not stated)	–	–	–	–	Less than 70% lysis of parasites	–	–	Less than 70% lysis of parasites	Less than 70% lysis of parasites	Less than 70% lysis of parasites	Less than 70% lysis of parasites	Less than 70% lysis of parasites	Less than 70% lysis of parasites	Less than 70% lysis of parasites	Less than 70% lysis of parasites	Less than 70% lysis of parasites	Less than 70% lysis of parasites	Activity [23]: Less than 70% lysis of parasites
CCCCCCCCCCCCCCC(N)CNCC(=O)O (configuration not stated)	–	–	–	80-90% lysis of parasites	80-90% lysis of parasites	–	+	–	80-90% lysis of parasites	–	80-90% lysis of parasites	–	80-90% lysis of parasites	80-90% lysis of parasites	80-90% lysis of parasites	–	–	Activity [7]: 80-90% lysis of parasites; Activity [18]: 80-90% lysis of parasites; Activity [9]: 80-90% lysis of parasites; Activity [11]: 80-90% lysis of parasites
CCCCCCCCCCCCCCC(N)CNCC (configuration not stated)	80-90% lysis of parasites	80-90% lysis of parasites	+	+	80-90% lysis of parasites	80-90% lysis of parasites	+	–	–	–	–	–	–	–	–	–	–	Activity [25]: 80-90% lysis of parasites; Activity [26]: 80-90% lysis of parasites; Activity [8]: 80-90% lysis of parasites; Activity [27]: 80-90% lysis of parasites; Activity [12]: 80-90% lysis of parasites
CCCCCCCCCCCCCCC(N)CN(CC(=O)O)CC(=O)O (configuration not stated)	80-90% lysis of parasites	–	+	+	80-90% lysis of parasites	80-90% lysis of parasites	+	–	–	–	–	–	80-90% lysis of parasites	80-90% lysis of parasites	–	–	–	Activity [25]: 80-90% lysis of parasites; Activity [26]: 80-90% lysis of parasites; Activity [8]: 80-90% lysis of parasites; Activity [27]: 80-90% lysis of parasites
CCCCCCCCCCCCCCC(=O)NC(CCCCCCCCCCCCCC)COC(=O)CCCCCC (configuration not stated)	–	–	–	–	Less than 70% lysis of parasites	–	–	Less than 70% lysis of parasites	Less than 70% lysis of parasites	Less than 70% lysis of parasites	Less than 70% lysis of parasites	Less than 70% lysis of parasites	Less than 70% lysis of parasites	Less than 70% lysis of parasites	Less than 70% lysis of parasites	Less than 70% lysis of parasites	Less than 70% lysis of parasites	Activity [28]: Less than 70% lysis of parasites
CCCCCCCCCCCCCCC(CNCC)NC(=O)OC(C)(C)C (configuration not stated)	80-90% lysis of parasites	80-90% lysis of parasites	+	+	80-90% lysis of parasites	80-90% lysis of parasites	80-90% lysis of parasites	+	–	+	–	–	–	–	–	–	–	Activity [29]: 80-90% lysis of parasites
CCCCCCCCCCCCCCC(CN(CC)CC)NC(=O)OC(C)(C)C (configuration not stated)	–	–	+	+	–	–	+	+	–	+	–	–	–	–	–	–	–	Activity [30]: 80-90% lysis of parasites; Activity [31]: 80-90% lysis of parasites; Activity [29]: 80-90% lysis of parasites
CCCCCCCCCCCCCCC(=O)NC(CO)CCCCCCCCCCCCCC (configuration not stated)	–	–	–	–	Less than 70% lysis of parasites	–	–	Less than 70% lysis of parasites	Less than 70% lysis of parasites	Less than 70% lysis of parasites	Less than 70% lysis of parasites	Less than 70% lysis of parasites	Less than 70% lysis of parasites	Less than 70% lysis of parasites	Less than 70% lysis of parasites	Less than 70% lysis of parasites	Less than 70% lysis of parasites	Activity [28]: Less than 70% lysis of parasites
CCCCCCCCCCCCCCC(N)CNC(=O)CCCC(=O)O (configuration not stated)	–	80-90% lysis of parasites	+	+	80-90% lysis of parasites	–	+	+	–	+	–	–	–	–	–	–	–	Activity [32]: 80-90% lysis of parasites; Activity [33]: 80-90% lysis of parasites; Activity [34]: 80-90% lysis of parasites; Activity [12]: 80-90% lysis of parasites

Source: ChEMBL document CHEMBL1135076, “Leishmanicidal activity of some aliphatic diamines and amino-alcohols” (Bioorg Med Chem Lett, 2002)
